Patent publication US20260109721A1, “IONIZABLE CATIONIC LIPIDS INCORPORATING SILICON: SYNTHESIS AND LNP FORMULATION” (priority 2023, published 2026)
Read-outs that look alike come from different tables or passages of the source.

How the values were obtained:
[1] = LNP size, PDI and zeta potential by Dynamic Light Scattering (Method A); assay type: physicochemical; details: LNP formulated with the lipid, DLS
Method: (§1) The synthesized lipids were tested in term of in vitro transfection efficacy and toxicity on HeLa cells. In order to perform the mentioned biological tests, appropriate LNPs had to be formulated from the synthesized lipids. The formulation technique was different in Method A and B. The particle size, polydispersity index (PDI) and zeta potential of resulting LNPs were determined by means of Dynamic Light Scattering technique (DLS). Prior to biological testing the encapsulation efficiency (EE) of the loaded LNPs was determined by using RiboGreen RNA assay. In case of Method A Luc mRNA while in case of Method B GFP mRNA was transfected into the cells. In parallel with the transfection experiments, toxicity of the investigated LNPs was determined, in case of Method A resazurin assay while in case of Method B MTT assay was used. Additionally, the toxicity of the lipids was investigated on HepG2 cells and IC50 values were determined.
• 1. If needed, prepare stock solutions by solving known amounts of lipid powder into an appropriate solvent. The recommended solvent is ethanol and the recommended concentration is typically in the range 10-50 mM. Higher concentrations are preferred to allow flexibility on mRNA-LNP concentration. • 2. Remove the lipid stock solutions from the −20° C. freezer. For long-term storage, −80° C. is used. • 3. Check the vials for precipitation, DOPE (CAS #4004-05-1) (20 mM) and DSPE-PEG (CAS #474922-26-4) (5 mM) may need a 5-30 minute incubation step at 37° C. with intermittent vortexing to resuspend all contents. […] As a last resort, lipids may be heated to 50° C. to resuspend, time should be kept as short as possible to prevent oxidation or other modifying or degradative processes. • 4. Mix the lipids by vortexing for 2 minutes. • 5. […] Cooling the solution prevent excessive evaporation of ethanol or similar solvents upon opening. • 6. Meanwhile, thaw the RNA samples, including the latest SecNLuc control, by inserting the frozen tube in a room temperature aluminium block. • 7. Prepare for each LNP-formulation with identical mRNA component, an RNA master mix according to Table 1 below in a fresh tube. Use of a master mix allows more precise comparison of lipid formulations relative to each other. Split the master mix over a number of fresh tubes equal to the number of samples+controls. Each tube contains 375 μl of mRNA in 10 mM Citrate pH 4.0. • 8. Prepare for each LNP formulation with identical lipid composition a Lipid master mix according to Table 1 below in a fresh tube, exclude the lipid of interest. Use of a master mix allows more precise comparison of the novel ionizable lipid relative to each other. Split the master mix over a number of fresh tubes equal to the number of samples+controls. Each tube contains 65.5 μl of lipid master mix. • 9. Add the ionizable lipid of interest to the equally divide lipid master mix. Mix well by pipetting up and down. Label the tube according to the ionizable lipid used. • 10. Power on the L1 FM (L1 Formulation Machine uses 2 high-speed syringe pumps to mix lipids in organic solvents with mRNA in acidic aquous solution to generate well-defined LNPs. The microfluidic mixing chip involves a dean-type structure performing the high-efficiency mixing at a total flow rate (TFR) of around 12 ml/min at a 3:1 mixing ratio) and allow it to do a calibration of motor positions.
• 18. Fill a fresh syringe (C) through a blunt 18G stainless steel needle with the previously prepared RNA mixture of step 6. The volume should be approximately 85% of total formulation volume+25 μl (dead-volume). Make sure to remove all air bubbles by tapping. • 19. Fill a fresh syringe (D) through a blunt 18G stainless steel needle with the Lipid master mix. The volume should be approximately […] of total formulation volume+25 μl (dead-volume). Again, Make sure to remove all bubbles. • 20. Attach the syringes in the correct orientation, syringe A on the left and syringe B on the right • 21.

HepG2 cell line = assay: In vitro toxicity study on HepG2 cell line (resazurin, viability and IC50); assay type: cell-based, human; details: for IC50: lipid toxicity, HepG2, 48 h post-treatment, 6.25-800 μM, read-out: IC50 value, μM (on HepG2 cell)
Method: as §1
HepG2 cell line (human hepatocellular carcinoma) were maintained in DMEM medium supplemented with 10% FBS. Cell toxicity measurements were carried out in 384-well microtiter plates with 1000 cells seeded in each well. Test measurements were carried out in triplicate, and control measurements in quadruplicate. After an overnight incubation, the cells were treated with an increasing concentration of the test compounds (6.25, 12.5, 25, 50, 100, 200, 400, 800 μM). […] 48 h post-treatment, following visual inspection under an inverted microscope, cell viability was measured by resazurin assay. Viability of treated cells was calculated relative to that of ethanol vehicle controls. Concentration response curves (CRCs) were obtained and corresponding IC50 values were calculated where applicable and are shown in Table 9.
Resazurin reagent (Sigma-Aldrich) was dissolved in PBS (pH 7.4) at 0.15 mg/ml concentration, 0.22 μm filtered and aliquoted at −20° C., 10 μl resazurin stock solution was added to wells. After 5 hours incubation at 37° C. under 5% CO2 fluorescence (530 nm excitation/580 nm emission) was recorded on a multimode microplate reader.

[2] = HepG2 cells, 6.25 μM lipid, 48 h post-treatment, resazurin, relative to ethanol vehicle controls
[3] = HepG2 cells, 12.5 μM lipid, 48 h post-treatment, resazurin, relative to ethanol vehicle controls
[4] = HepG2 cells, 25 μM lipid, 48 h post-treatment, resazurin, relative to ethanol vehicle controls
[5] = HepG2 cells, 50 μM lipid, 48 h post-treatment, resazurin, relative to ethanol vehicle controls
[6] = HepG2 cells, 100 μM lipid, 48 h post-treatment, resazurin, relative to ethanol vehicle controls
[7] = HepG2 cells, 200 μM lipid, 48 h post-treatment, resazurin, relative to ethanol vehicle controls
[8] = HepG2 cells, 400 μM lipid, 48 h post-treatment, resazurin, relative to ethanol vehicle controls
[9] = HepG2 cells, 800 μM lipid, 48 h post-treatment, resazurin, relative to ethanol vehicle controls

CCCCCCCCC(CCCCCC)C(=O)OCCCCCCN(CCCCO)CCCCCCOC(=O)C(CCCCCC)CCCCCCCC (stereo not drawn) [ALC-0315, reference compound]
PDI [1]: 0.007 | Size (nm) [1]: 131.9 nm | Zeta potential (mV) [1]: −12.32 mV | Viability (%) at different lipid concentrations, mean (HepG2 cell line; [2]): 76.8% | Viability (%) at different lipid concentrations, mean (HepG2 cell line; [3]): 97.4% | Viability (%) at different lipid concentrations, mean (HepG2 cell line; [4]): 95.4% | Viability (%) at different lipid concentrations, mean (HepG2 cell line; [5]): 91.6% | Viability (%) at different lipid concentrations, mean (HepG2 cell line; [6]): 84.2% | Viability (%) at different lipid concentrations, mean (HepG2 cell line; [7]): 58.9% | Viability (%) at different lipid concentrations, mean (HepG2 cell line; [8]): 42.9% | Viability (%) at different lipid concentrations, mean (HepG2 cell line; [9]): 20.9% | IC50 (HepG2 cell line; resazurin): 299 µM

CCCCC/C=C\C/C=C\CCCCCCCCOC(CCCCCN(CCO)CCO)O[Si](C)(C)OCCCCCCCC/C=C\C/C=C\CCCCC (stereo not drawn) [Example 39, (21Z,24Z)-3-(2-hydroxyethyl)-11,11-dimethyl-9-(((9Z,12Z)-octadeca-9,12-dien-1-yl)oxy)-10,12-dioxa-3-aza-11-silatriaconta-21,24-dien-1-ol]
PDI [1]: 0.072 | Size (nm) [1]: 170.4 nm | Zeta potential (mV) [1]: −9.414 mV | IC50 (HepG2 cell line; Homo sapiens, resazurin): 667 µM | Viability (%) at different lipid concentrations, mean (HepG2 cell line; human, 48 h, 6.25 μM): 99.8% | Viability (%) at different lipid concentrations, mean (HepG2 cell line; human, 48 h, 12.5 μM): 97.8% | Viability (%) at different lipid concentrations, mean (HepG2 cell line; human, 48 h, 25 μM): 99.4% | Viability (%) at different lipid concentrations, mean (HepG2 cell line; human, 48 h, 50 μM): 98.6% | Viability (%) at different lipid concentrations, mean (HepG2 cell line; human, 48 h, 100 μM): 100.3% | Viability (%) at different lipid concentrations, mean (HepG2 cell line; human, 48 h, 200 μM): 106.1% | Viability (%) at different lipid concentrations, mean (HepG2 cell line; human, 48 h, 400 μM): 83.4% | Viability (%) at different lipid concentrations, mean (HepG2 cell line; human, 48 h, 800 μM): 35.8%

CCCCC/C=C\C/C=C\CCCCCCCCO[Si](C)(C)OC(CCCCCCC/C=C\C/C=C\CCCCC)OCCCCCCN(CCO)CCO (stereo not drawn) [Example 40, (23Z,26Z)-11-((8Z,11Z)-heptadeca-8,11-dien-1-yl)-3-(2-hydroxyethyl)-13,13-dimethyl-10,12,14-trioxa-3-aza-13-siladotriaconta-23,26-dien-1-ol]
PDI [1]: 0.020 | Size (nm) [1]: 152.7 nm | Zeta potential (mV) [1]: −8.912 mV | Viability (%) at different lipid concentrations, mean (HepG2 cell line; [2]): 100.8% | Viability (%) at different lipid concentrations, mean (HepG2 cell line; [3]): 97.6% | Viability (%) at different lipid concentrations, mean (HepG2 cell line; [4]): 98.9% | Viability (%) at different lipid concentrations, mean (HepG2 cell line; [5]): 101.8% | Viability (%) at different lipid concentrations, mean (HepG2 cell line; [6]): 109.7% | Viability (%) at different lipid concentrations, mean (HepG2 cell line; [7]): 115.3% | Viability (%) at different lipid concentrations, mean (HepG2 cell line; [8]): 102.0% | Viability (%) at different lipid concentrations, mean (HepG2 cell line; [9]): 89.0% | IC50 (HepG2 cell line; Homo sapiens, resazurin): > 800 µM

CCCCCCCC/C=C\CCCCCCCCOC(CCCCCCCCCCCCCCC)O[Si](C)(C)OCCCCCCN(CCO)CCO (stereo not drawn) [Example 41, (Z)-3-(2-hydroxyethyl)-11,11-dimethyl-13-pentadecyl-10,12,14-trioxa-3-aza-11-siladotriacont-23-en-1-ol]
PDI [1]: 0.031 | Size (nm) [1]: 144.2 nm | Zeta potential (mV) [1]: −8.54 mV | Viability (%) at different lipid concentrations, mean (HepG2 cell line; [2]): 99.0% | Viability (%) at different lipid concentrations, mean (HepG2 cell line; [3]): 97.6% | Viability (%) at different lipid concentrations, mean (HepG2 cell line; [4]): 102.6% | Viability (%) at different lipid concentrations, mean (HepG2 cell line; [5]): 111.2% | Viability (%) at different lipid concentrations, mean (HepG2 cell line; [6]): 113.2% | Viability (%) at different lipid concentrations, mean (HepG2 cell line; [7]): 109.5% | Viability (%) at different lipid concentrations, mean (HepG2 cell line; [8]): 91.5% | Viability (%) at different lipid concentrations, mean (HepG2 cell line; [9]): 90.7% | IC50 (HepG2 cell line; Homo sapiens, resazurin): > 800 µM

CCCCCCCC/C=C\CCCCCCCC(OCCCCCCCCCCCCCCCC)O[Si](C)(C)OCCCCCCN(CCO)CCO (stereo not drawn) [Example 42, (Z)-13-(heptadec-8-en-1-yl)-3-(2-hydroxyethyl)-11,11-dimethyl-10,12,14-trioxa-3-aza-11-silatriacontan-1-ol]
PDI [1]: 0.059 | Size (nm) [1]: 129.0 nm | Zeta potential (mV) [1]: −8.408 mV | Viability (%) at different lipid concentrations, mean (HepG2 cell line; [2]): 105.1% | Viability (%) at different lipid concentrations, mean (HepG2 cell line; [3]): 100.0% | Viability (%) at different lipid concentrations, mean (HepG2 cell line; [4]): 98.9% | Viability (%) at different lipid concentrations, mean (HepG2 cell line; [5]): 102.2% | Viability (%) at different lipid concentrations, mean (HepG2 cell line; [6]): 107.6% | Viability (%) at different lipid concentrations, mean (HepG2 cell line; [7]): 117.1% | Viability (%) at different lipid concentrations, mean (HepG2 cell line; [8]): 104.2% | Viability (%) at different lipid concentrations, mean (HepG2 cell line; [9]): 99.8% | IC50 (HepG2 cell line; Homo sapiens, resazurin): > 800 µM

CCCCC/C=C\C/C=C\CCCCCCCCOC(CCCCCCC/C=C\C/C=C\CCCCC)O[Si](C)(C)OCCCCCCN1CCN(CCCCCCO[Si](C)(C)OC(CCCCCCC/C=C\C/C=C\CCCCC)OCCCCCCCC/C=C\C/C=C\CCCCC)CC1 (stereo not drawn) [Example 70, 1,4-bis((20Z,23Z)-10-((8Z,11Z)-heptadeca-8,11-dien-1-yl)-8,8-dimethyl-7,9,11-trioxa-8-silanonacosa-20,23-dien-1-yl)piperazine]
PDI [1]: 0.061 | Size (nm) [1]: 171.4 nm | Zeta potential (mV) [1]: −10.47 mV

CCCCCCCC/C=C\CCCCCCCC(OCC(CCCCCCCC)SCCCCCCCCCC)O[Si](C)(C)OCCCCCCN(CCO)CCO (stereo not drawn) [Example 73, (Z)-13-(heptadec-8-en-1-yl)-3-(2-hydroxyethyl)-11,11-dimethyl-16-octyl-10,12,14-trioxa-17-thia-3-aza-11-silaheptacosan-1-ol]
PDI [1]: 0.16 | Size (nm) [1]: 86.3 nm | Zeta potential (mV) [1]: −17.46 mV

CCCCC/C=C\C/C=C\CCCCCCCCO[Si](C)(C)OC(CCCCCCC/C=C\CCCCCCCC)OCCCN(C)C (stereo not drawn) [Example 81, (17Z,20Z)-5-((Z)-heptadec-8-en-1-yl)-N,N,7,7-tetramethyl-4,6,8-trioxa-7-silahexacosa-17,20-dien-1-amine]
PDI [1]: 0.10 | Size (nm) [1]: 104 nm | Zeta potential (mV) [1]: −25.24 mV

CCCCC/C=C\C/C=C\CCCCCCCCOC(CCCCCCC/C=C\C/C=C\CCCCC)O[Si](C)(C)O[Si](C)(C)CCCCCCN(CCO)CCO (stereo not drawn) [Example 82, (24Z,27Z)-14-((8Z,11Z)-heptadeca-8,11-dien-1-yl)-3-(2-hydroxyethyl)-10,10,12,12-tetramethyl-11,13,15-trioxa-3-aza-10,12-disilatritriaconta-24,27-dien-1-ol]
PDI [1]: 0.26 | Size (nm) [1]: 97.5 nm | Zeta potential (mV) [1]: −16.31 mV
